These are literature values, as cited in US20050026813A1, “Antibiotic-metal complexes in the detection of gram-positive bacteria and other biological analytes” (priority 2003, published 2005).

For one series, the system named is gram-positive bacteria. As to conditions: in words.
Series [1] has as its system Streptococcus pyogenes CN10.
Series [2] concerns Bacillus subtilis ATCC 6633.
Series [3] concerns multi-drug resistant strains of Haemophilus influenzae and Moraxella catarrhalis.
Series [4] deals with Staphylococcus aureus Oxford.
Series [5] relates to Staphylococcus aureus SG511.
The subject of series [6] is Streptococcus pyogenes 77A.
Series [7] has as its system anaerobes and gram-positive aerobes.
The test system of another series is Staphylococcus aureus. To be noted: systemic infections in mice.
Series [8] deals with subcutaneous and urinary tract infections.
The test system of series [9] is laboratory strains of aerobic and anaerobic gram-positive bacteria.
A further series relates to Strep pneumoniae. As to conditions: systemic infections in mice.
For series [10] the following is noted: systemic infections in mice, Enterobacter faecalis.
The next series has as its system Streptococcus pyogenes. To be noted: systemic infections in mice.
Series [11] concerns Enterococcus faecalis subsp. Liquifaciens S-299.
Series [12] concerns Mycobacterium smegmatis ATCC 607.
A further series relates to Staphylococcus aureus 56. To be noted: mice infected with Staphylococcus aureus 56.
In the next series the test system is S. aureus SR2030. As to conditions: S. aureus SR2030 in mice, s.c.
The test system of series [13] is Staphylococcus aureus SR14.

For “vancomycin,22-O-(3-amino-2,3,6-trideoxy-3-C-methyl-alpha-D-arabino-hexopyranosyl)-2′-O-de(3-amino-2,3,6-trideoxy-3-C-methyl-alpha-L-lyxoyranosyl)-10,19-didechloro-2′-O-(6-deoxy-alpha-D-talopyranosyl)- [MM-49721]”, the “activity against gram-positive bacteria” value in the series with gram-positive bacteria was “good activity”. In addition, the MIC in the series on Bacillus subtilis is 2 microgram/ml.

Turning to `CCCCCCCCCC(=O)NC1C(O[C@@H]2c3cc(Cl)c(c(Cl)c3)Oc3cc4cc(c3OC3OC(CO)C(O)C(O)C3O)Oc3ccc(cc3Cl)[C@@H](O)[C@H]3NC(=O)[C@H](NC)c5ccc(O)c(c5)Oc5cc(O)c(Cl)c(c5)C(NC3=O)C(=O)NC4C(=O)N[C@H]3C(=O)N[C@@H]2C(O)N[C@H](C(=O)O)c2cc(O)cc(O)c2-c2cc3cc(Cl)c2OC2OC(CO)C(O)C(O)C2O)OC(C(=O)O)C(O)C1O` (stereo partly shown) [MM 55268], the MIC in series [1] is 0.25 microgram/ml; in the series on Micrococcus luteus it was 2 microgram/ml; in series [2], 2 microgram/ml; in the series on Staph. aureus V573 MR it was 1 microgram/ml.

With `C[C@@H]1CN(c2c(F)c(N)c3c(=O)c(C(=O)O)cn(C4CC4)c3c2F)C[C@H](C)N1` [sparfloxacin], in series [3], the in vitro activity entry is recorded as “highly active”.

Regarding `CN[C@H](CC(C)C)C(=O)N[C@H]1C(=O)N[C@@H](CC(N)=O)C(=O)N[C@H]2C(=O)N[C@H]3C(=O)N[C@H](C(=O)N[C@H](C(=O)O)c4cc(O)cc(O)c4-c4cc3ccc4O)[C@H](O)c3ccc(c(Cl)c3)Oc3cc2cc(c3O[C@@H]2O[C@H](CO)[C@@H](O)[C@H](O)[C@H]2O[C@H]2C[C@](C)(N)[C@H](O)[C@H](C)O2)Oc2ccc(cc2Cl)[C@H]1O` [vancomycin], the MIC in series [4] is recorded as 2 microgram/ml; in series [1], 1 microgram/ml; in the series with Micrococcus luteus it was 2 microgram/ml; in series [2] it was 0.25 microgram/ml; in the series with Strep. faecalis I, 2 microgram/ml; with Staph. aureus V573 MR, 2 microgram/ml.

Turning to des-methyl-balhimycin, the MIC in series [5] was 0.1 microgram/ml; in [6] it was 0.05 microgram/ml; in the series with S. aureus 285, 0.1 microgram/ml; in the series on S. aureus 503, 0.05 microgram/ml.

For `COC(C)C(NC(=O)C1CCCN1C)C1OC(SC)C(O)C(O)C1O` (stereo not shown) [BU-2545, 7-O-methyl-4′-de-n-propyllincomycin], in series [7], the antibacterial activity result was “exhibits antibacterial activity”.

Consider `CN[C@H](CC(C)C)C(=O)N[C@H]1C(=O)N[C@@H](CC(N)=O)C(=O)N[C@H]2C(=O)NC3C(=O)N[C@@H](C[C@H](OC4C[C@@H](C)C(O)C(C)O4)c4ccc(c(Cl)c4)Oc4cc2cc(c4OC2OC(CO)C(O)C(O)C2O)OC2CC=C(C=C2Cl)C1O)C(=O)N[C@H](C(=O)O)c1cc(O)cc(O)c1-c1cc3ccc1O` (stereo partly shown) [S-3662], for which the median effective dose (ED50) with Staphylococcus aureus was 2.63 mg/kg; in the series on Strep pneumoniae, 0.39 mg/kg; in [10], 0.95 mg/kg; in the series with Streptococcus pyogenes it was 0.49 mg/kg. For the same molecule, the therapeutic efficacy entry in [8] is “showed therapeutic efficacy”. The “activity compared with vancomycin” value in series [9] is recorded as “superior to vancomycin”.

In the case of “avoparcin alpha, 49-chloro-4B,50-di-O-alpha-D-mannopyranosyl- [Galacardin A]”, the MIC in the series with S. aureus Sank 70175 was 6.25 microgram/ml; in series [11], 6.25 microgram/ml; in series [12], 25.0 microgram/ml. Besides, the “in vivo efficacy (ED50)” value in the series on Staphylococcus aureus 56 was 19.0 mg/kg.

With `CNC(CC(C)C)C(=O)NC1C(=O)NC(CC(N)=O)C(=O)NCC2C(=O)NC3CC/C=C\C=C(\O)CCc4c(O)cc(O)cc4C(C(=O)O)NCC(=O)C(CC(OC4CC(C)(N)C(O)C(C)O4)CC/C=C\COC4=C(OC5OC(CO)C(O)C(O)C5OC5CC(C)(N)C(O)C(C)O5)C(=CC2C=C4)OC/C=C\CCC1O)NCC3=O` (stereo not shown) [PA-42867], the median effective dose (ED50) in the series with S. aureus SR2030 is 2.31 mg/kg. In [13], the MIC is reported as 0.78 microgram/ml. Besides, the “activity against gram-positive bacteria” value in the series on gram-positive bacteria is “potent activity”.
